Measured values reported in the kinase profiling compilation of Christmann-Franck et al. (2016).
Several values for one entry are separate records, joined by “and”; a condition that tells them apart may be missing. Equal values may be shown once.

Legend:
Test in all cases: radiometric filter-binding kinase assay, Kinase HotSpot
Conditions in all cases: compound 0.5 µM; ATP 10 µM
SGK3 (human) = SGK3 (human) (UniProt Q96BR1)
PRKG2 (human) = PRKG2 (human) (UniProt Q13237)
MARK4 (human) = MARK4 (human) (UniProt Q96L34)
PRKG1 (human) = PRKG1 (human) (UniProt Q13976)
MAP2K1 (human) = MAP2K1 (human) (UniProt Q02750)
ACVR1B (human) = ACVR1B (human) (UniProt P36896)
CSK (human) = CSK (human) (UniProt P41240)
MAPK12 (human) = MAPK12 (human) (UniProt P53778)
MAP3K9 (human) = MAP3K9 (human) (UniProt P80192)
CDK6 CCND3 (human) = CDK6 CCND3 (human) (UniProt P30281+Q00534)
TGFBR1 (human) = TGFBR1 (human) (UniProt P36897)
SRC (human) = SRC (human) (UniProt P12931)
RPS6KA3 KD1 KD2 (human) = RPS6KA3 KD1 KD2 (human) (UniProt P51812)
LIMK1 (human) = LIMK1 (human) (UniProt P53667)
ERBB4 (human) = ERBB4 (human) (UniProt Q15303)
STK3 (human) = STK3 (human) (UniProt Q13188)
TAOK3 (human) = TAOK3 (human) (UniProt Q9H2K8)
AKT3 (human) = AKT3 (human) (UniProt Q9Y243)
MATK (human) = MATK (human) (UniProt P42679)
PIM1 (human) = PIM1 (human) (UniProt P11309)
CSNK1A1 (human) = CSNK1A1 (human) (UniProt P48729)
CDK1 CCNA2 (human) = CDK1 CCNA2 (human) (UniProt P06493+P20248)
MYLK (human) = MYLK (human) (UniProt Q15746)
RPS6KA5 KD2 (human) = RPS6KA5 KD2 (human) (UniProt O75582)
CAMKK2 (human) = CAMKK2 (human) (UniProt Q96RR4)
MAPK11 (human) = MAPK11 (human) (UniProt Q15759)
TNK2 (human) = TNK2 (human) (UniProt Q07912)
PLK3 (human) = PLK3 (human) (UniProt Q9H4B4)
ERBB2 (human) = ERBB2 (human) (UniProt P04626)
PTK2B (human) = PTK2B (human) (UniProt Q14289)
MAPK8 (human) = MAPK8 (human) (UniProt P45983)
FGFR4 (human) = FGFR4 (human) (UniProt P22455)
[1] = molecular target: JAK1 JH1 catalytic (human) (UniProt P23458)
SRPK1 (human) = SRPK1 (human) (UniProt Q96SB4)
PRKD2 (human) = PRKD2 (human) (UniProt Q9BZL6)
FGFR3 (human) = FGFR3 (human) (UniProt P22607)
SRMS (human) = SRMS (human) (UniProt Q9H3Y6)
BMX (human) = BMX (human) (UniProt P51813)
RIPK2 (human) = RIPK2 (human) (UniProt O43353)
FGFR2 (human) = FGFR2 (human) (UniProt P21802)
PAK2 (human) = PAK2 (human) (UniProt Q13177)
CSNK1G1 (human) = CSNK1G1 (human) (UniProt Q9HCP0)

PRKG2 (human), sequence (Q13237 whole entry, looked up): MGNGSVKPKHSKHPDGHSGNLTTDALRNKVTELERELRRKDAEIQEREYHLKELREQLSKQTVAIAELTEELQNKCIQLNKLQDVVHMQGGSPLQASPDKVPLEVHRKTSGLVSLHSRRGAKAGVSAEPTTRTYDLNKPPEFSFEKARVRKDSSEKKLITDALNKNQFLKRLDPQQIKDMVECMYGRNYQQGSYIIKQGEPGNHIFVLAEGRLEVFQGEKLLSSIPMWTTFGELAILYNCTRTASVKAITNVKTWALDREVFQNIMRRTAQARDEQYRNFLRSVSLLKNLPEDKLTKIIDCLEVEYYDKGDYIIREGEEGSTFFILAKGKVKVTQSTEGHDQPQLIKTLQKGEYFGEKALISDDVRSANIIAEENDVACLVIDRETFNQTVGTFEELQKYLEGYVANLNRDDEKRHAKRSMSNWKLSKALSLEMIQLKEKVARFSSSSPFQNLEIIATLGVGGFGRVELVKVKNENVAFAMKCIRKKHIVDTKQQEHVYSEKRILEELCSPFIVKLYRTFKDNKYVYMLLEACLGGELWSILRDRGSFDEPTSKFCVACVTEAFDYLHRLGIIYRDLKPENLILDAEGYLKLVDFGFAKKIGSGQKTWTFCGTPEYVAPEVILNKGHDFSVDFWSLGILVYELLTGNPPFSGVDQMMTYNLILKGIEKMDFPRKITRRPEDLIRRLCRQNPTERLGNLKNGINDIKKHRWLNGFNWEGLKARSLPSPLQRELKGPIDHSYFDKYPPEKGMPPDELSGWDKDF
MAPK12 (human), sequence (P53778 whole entry, looked up): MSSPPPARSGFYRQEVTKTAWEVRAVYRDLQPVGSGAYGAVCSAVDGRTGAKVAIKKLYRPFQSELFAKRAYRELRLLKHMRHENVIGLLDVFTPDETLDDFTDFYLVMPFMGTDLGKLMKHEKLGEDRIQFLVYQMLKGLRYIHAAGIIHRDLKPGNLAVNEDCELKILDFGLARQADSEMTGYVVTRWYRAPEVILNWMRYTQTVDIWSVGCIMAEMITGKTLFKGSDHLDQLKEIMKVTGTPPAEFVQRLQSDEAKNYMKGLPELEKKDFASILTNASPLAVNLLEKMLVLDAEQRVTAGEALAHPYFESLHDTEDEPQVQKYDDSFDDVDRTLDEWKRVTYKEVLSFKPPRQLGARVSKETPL
SGK3 (human), sequence (Q96BR1 whole entry, looked up): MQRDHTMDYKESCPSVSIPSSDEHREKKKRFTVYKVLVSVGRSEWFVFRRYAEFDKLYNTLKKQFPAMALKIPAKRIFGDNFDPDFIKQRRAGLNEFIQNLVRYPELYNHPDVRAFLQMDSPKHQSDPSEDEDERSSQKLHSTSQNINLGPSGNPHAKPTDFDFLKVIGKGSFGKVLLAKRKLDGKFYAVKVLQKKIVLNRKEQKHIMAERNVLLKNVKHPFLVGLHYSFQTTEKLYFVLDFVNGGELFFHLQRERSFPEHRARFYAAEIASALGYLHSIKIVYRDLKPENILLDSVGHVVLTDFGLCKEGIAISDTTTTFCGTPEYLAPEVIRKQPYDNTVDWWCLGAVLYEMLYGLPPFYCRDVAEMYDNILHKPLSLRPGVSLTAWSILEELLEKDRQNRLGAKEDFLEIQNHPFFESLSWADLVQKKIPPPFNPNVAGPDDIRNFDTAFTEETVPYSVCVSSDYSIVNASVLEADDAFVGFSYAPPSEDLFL
FGFR2 (human), sequence (P21802 whole entry, looked up): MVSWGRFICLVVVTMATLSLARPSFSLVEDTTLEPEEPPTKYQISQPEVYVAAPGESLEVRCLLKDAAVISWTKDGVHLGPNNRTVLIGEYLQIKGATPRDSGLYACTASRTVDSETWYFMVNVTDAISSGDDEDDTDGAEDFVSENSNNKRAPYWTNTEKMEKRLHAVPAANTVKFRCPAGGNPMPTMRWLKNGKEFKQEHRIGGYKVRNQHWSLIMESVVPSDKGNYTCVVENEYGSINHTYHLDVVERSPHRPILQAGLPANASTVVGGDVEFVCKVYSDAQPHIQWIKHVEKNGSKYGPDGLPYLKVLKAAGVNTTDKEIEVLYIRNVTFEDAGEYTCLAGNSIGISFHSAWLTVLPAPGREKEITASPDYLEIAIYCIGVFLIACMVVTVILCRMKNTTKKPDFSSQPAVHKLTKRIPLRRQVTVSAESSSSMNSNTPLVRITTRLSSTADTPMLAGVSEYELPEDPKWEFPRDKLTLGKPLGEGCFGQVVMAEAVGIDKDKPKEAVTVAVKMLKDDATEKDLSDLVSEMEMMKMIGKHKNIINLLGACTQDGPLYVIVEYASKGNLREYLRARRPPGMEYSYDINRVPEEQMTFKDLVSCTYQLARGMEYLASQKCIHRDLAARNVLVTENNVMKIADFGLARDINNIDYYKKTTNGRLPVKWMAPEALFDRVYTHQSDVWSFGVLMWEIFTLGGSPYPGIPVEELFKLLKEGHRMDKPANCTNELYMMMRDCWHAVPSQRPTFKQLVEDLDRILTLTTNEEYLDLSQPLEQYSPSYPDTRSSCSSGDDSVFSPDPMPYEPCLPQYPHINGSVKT
CDK1 CCNA2 (human), sequence (P06493 whole entry, looked up): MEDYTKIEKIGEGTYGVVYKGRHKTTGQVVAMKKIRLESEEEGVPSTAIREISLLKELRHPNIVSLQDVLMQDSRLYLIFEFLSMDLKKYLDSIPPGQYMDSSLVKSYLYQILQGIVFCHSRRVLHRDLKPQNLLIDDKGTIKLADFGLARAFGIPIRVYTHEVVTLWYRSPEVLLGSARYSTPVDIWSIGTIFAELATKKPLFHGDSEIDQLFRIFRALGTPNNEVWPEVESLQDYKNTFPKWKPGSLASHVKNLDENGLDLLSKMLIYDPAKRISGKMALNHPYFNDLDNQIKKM
CDK1 CCNA2 (human), sequence (P20248 whole entry, looked up): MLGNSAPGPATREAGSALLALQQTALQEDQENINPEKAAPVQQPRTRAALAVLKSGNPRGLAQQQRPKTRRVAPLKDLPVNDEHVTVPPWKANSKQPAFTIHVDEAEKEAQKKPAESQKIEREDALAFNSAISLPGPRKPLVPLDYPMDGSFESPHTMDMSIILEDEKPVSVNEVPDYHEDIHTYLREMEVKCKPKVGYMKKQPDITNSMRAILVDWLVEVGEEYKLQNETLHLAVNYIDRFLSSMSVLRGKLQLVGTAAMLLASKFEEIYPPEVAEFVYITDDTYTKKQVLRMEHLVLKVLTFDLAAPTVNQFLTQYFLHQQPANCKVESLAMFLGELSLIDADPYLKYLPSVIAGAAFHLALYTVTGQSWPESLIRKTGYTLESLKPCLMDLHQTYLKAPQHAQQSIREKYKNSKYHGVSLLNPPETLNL
JAK1 JH1 catalytic (human), sequence (P23458 whole entry, looked up): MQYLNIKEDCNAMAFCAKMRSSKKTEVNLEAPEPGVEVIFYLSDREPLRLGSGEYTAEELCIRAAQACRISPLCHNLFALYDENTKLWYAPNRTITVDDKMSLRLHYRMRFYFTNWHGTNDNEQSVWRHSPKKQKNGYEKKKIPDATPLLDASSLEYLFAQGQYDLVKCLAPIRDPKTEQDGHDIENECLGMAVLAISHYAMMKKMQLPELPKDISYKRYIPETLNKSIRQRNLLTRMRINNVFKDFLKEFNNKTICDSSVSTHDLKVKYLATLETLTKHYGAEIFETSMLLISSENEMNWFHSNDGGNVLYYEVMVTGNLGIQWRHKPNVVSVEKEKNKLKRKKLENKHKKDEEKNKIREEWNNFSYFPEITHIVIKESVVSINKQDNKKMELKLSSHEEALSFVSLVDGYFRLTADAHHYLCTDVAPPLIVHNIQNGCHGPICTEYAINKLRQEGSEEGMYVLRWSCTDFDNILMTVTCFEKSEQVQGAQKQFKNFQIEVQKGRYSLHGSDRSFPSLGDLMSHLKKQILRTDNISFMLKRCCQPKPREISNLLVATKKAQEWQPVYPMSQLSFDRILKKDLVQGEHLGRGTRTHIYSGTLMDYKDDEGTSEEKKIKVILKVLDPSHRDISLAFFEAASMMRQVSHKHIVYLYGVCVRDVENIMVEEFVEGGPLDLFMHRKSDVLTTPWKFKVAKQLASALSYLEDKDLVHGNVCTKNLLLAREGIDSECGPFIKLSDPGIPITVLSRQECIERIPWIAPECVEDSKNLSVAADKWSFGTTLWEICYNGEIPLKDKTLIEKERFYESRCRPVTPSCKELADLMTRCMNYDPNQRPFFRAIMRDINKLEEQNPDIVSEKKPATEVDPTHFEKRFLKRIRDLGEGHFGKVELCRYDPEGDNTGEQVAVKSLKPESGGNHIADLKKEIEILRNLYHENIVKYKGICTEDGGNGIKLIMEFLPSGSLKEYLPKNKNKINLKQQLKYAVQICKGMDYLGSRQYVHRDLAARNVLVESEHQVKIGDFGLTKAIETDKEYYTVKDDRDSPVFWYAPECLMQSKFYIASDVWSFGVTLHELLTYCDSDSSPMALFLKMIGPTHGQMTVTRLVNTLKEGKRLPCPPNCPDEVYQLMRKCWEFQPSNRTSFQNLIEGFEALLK
CSNK1A1 (human), sequence (P48729 whole entry, looked up): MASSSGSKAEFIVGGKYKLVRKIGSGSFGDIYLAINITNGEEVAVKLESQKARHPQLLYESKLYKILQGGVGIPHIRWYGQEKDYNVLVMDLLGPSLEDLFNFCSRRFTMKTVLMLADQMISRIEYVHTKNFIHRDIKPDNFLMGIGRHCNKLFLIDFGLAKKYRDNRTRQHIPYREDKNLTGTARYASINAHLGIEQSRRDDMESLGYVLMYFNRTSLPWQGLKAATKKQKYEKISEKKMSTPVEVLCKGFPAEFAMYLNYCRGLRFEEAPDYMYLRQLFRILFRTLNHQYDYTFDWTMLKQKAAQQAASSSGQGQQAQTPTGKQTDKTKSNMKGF
PIM1 (human), sequence (P11309 whole entry, looked up): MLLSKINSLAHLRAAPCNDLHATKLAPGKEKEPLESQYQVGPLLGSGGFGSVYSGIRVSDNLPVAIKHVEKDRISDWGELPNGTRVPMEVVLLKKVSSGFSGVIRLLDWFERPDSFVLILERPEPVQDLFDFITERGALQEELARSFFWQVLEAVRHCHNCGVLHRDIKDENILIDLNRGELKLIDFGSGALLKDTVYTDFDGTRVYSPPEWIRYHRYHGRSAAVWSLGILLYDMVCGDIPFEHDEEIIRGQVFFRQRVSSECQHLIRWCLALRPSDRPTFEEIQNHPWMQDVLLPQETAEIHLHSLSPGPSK

O=C1Nc2ccccc2/C1=C1/Nc2ccccc2/C1=N\OCCC(O)CO (stereo not drawn) gave a residual activity (SGK3 (human)) of 100%, a residual activity (PRKG2 (human)) of 28.1% and a residual activity (MARK4 (human)) of 43.5%. For the same molecule, the residual activity (PRKG1 (human)) was 45.1% and 53%, the residual activity (MAP2K1 (human)) was 99.7% and the residual activity (ACVR1B (human)) was 110%. It also gave a residual activity (CSK (human)) of 86.3%, a residual activity (MAPK12 (human)) of 89.9% and a residual activity (MAP3K9 (human)) of 7.06%. For the same molecule, the residual activity (CDK6 CCND3 (human)) was 10.2%, the residual activity (TGFBR1 (human)) was 102% and the residual activity (SRC (human)) was 22.6%. The residual activity (RPS6KA3 KD1 KD2 (human)) was 18.3%, the residual activity (LIMK1 (human)) was 39.5% and the residual activity (ERBB4 (human)) was 97.5%. The residual activity (STK3 (human)) was 4.81%, the residual activity (TAOK3 (human)) was 55.4% and the residual activity (AKT3 (human)) was 92.9%. The residual activity (MATK (human)) was 101%, the residual activity (PIM1 (human)) was 59.7% and the residual activity (CSNK1A1 (human)) was 84.8%. The residual activity (CDK1 CCNA2 (human)) was 56.7%, the residual activity (MYLK (human)) was 32.3% and the residual activity (RPS6KA5 KD2 (human)) was 37.5%. It also gave a residual activity (CAMKK2 (human)) of 26%, a residual activity (MAPK11 (human)) of 95.2% and a residual activity (TNK2 (human)) of 4.93%. For the same molecule, the residual activity (PLK3 (human)) was 102%, the residual activity (ERBB2 (human)) was 95.3% and the residual activity (PTK2B (human)) was 30.5%. It also gave a residual activity (MAPK8 (human)) of 101%, a residual activity (FGFR4 (human)) of 65.7% and a residual activity [1] of 25.9%. For the same molecule, the residual activity (SRPK1 (human)) was 71.3%, the residual activity (PRKD2 (human)) was 74.3% and the residual activity (FGFR3 (human)) was 45.8%. For the same molecule, the residual activity (SRMS (human)) was 102%, the residual activity (BMX (human)) was 40.2% and the residual activity (RIPK2 (human)) was 62.8%. The residual activity (FGFR2 (human)) was 76%, the residual activity (PAK2 (human)) was 82.1% and the residual activity (CSNK1G1 (human)) was 89.2%.
In the case of CN(C)C[C@H]1CCn2c(c(C3=C(c4cn(C)c5ccccc45)C(=O)NC3=O)c3ccccc32)C1, the residual activity (SGK3 (human)) is reported as 95%, the residual activity (PRKG2 (human)) is reported as 90.7% and the residual activity (MARK4 (human)) is reported as 93.9%. The residual activity (PRKG1 (human)) was 81% and 88.8%, the residual activity (MAP2K1 (human)) was 98.8% and the residual activity (ACVR1B (human)) was 98.2%. It also gave a residual activity (CSK (human)) of 104%, a residual activity (MAPK12 (human)) of 102% and a residual activity (MAP3K9 (human)) of 90.8%. The residual activity (CDK6 CCND3 (human)) was 95%, the residual activity (TGFBR1 (human)) was 99.8% and the residual activity (SRC (human)) was 101%. It also gave a residual activity (RPS6KA3 KD1 KD2 (human)) of 1.81%, a residual activity (LIMK1 (human)) of 89.4% and a residual activity (ERBB4 (human)) of 84.3%. For the same molecule, the residual activity (STK3 (human)) was 102%, the residual activity (TAOK3 (human)) was 96.4% and the residual activity (AKT3 (human)) was 56.3%. The residual activity (MATK (human)) was 95%, the residual activity (PIM1 (human)) was 63.2% and the residual activity (CSNK1A1 (human)) was 98.5%. It also gave a residual activity (CDK1 CCNA2 (human)) of 67.8%, a residual activity (MYLK (human)) of 84% and a residual activity (RPS6KA5 KD2 (human)) of 24.8%. The residual activity (CAMKK2 (human)) was 108%, the residual activity (MAPK11 (human)) was 109% and the residual activity (TNK2 (human)) was 96.3%. It also gave a residual activity (PLK3 (human)) of 100%, a residual activity (ERBB2 (human)) of 95.9% and a residual activity (PTK2B (human)) of 95.5%. The residual activity (MAPK8 (human)) was 100%, the residual activity (FGFR4 (human)) was 89.6% and the residual activity [1] was 108%. It also gave a residual activity (SRPK1 (human)) of 103%, a residual activity (PRKD2 (human)) of 97.6% and a residual activity (FGFR3 (human)) of 96.3%. For the same molecule, the residual activity (SRMS (human)) was 109%, the residual activity (BMX (human)) was 91.7% and the residual activity (RIPK2 (human)) was 94.4%. The residual activity (FGFR2 (human)) was 104%, the residual activity (PAK2 (human)) was 85.1% and the residual activity (CSNK1G1 (human)) was 97%.
In the case of CC(=O)O/N=C1\C(=C2\C(=O)Nc3cc(Br)ccc32)Nc2ccccc21, the residual activity (SGK3 (human)) is reported as 100%, the residual activity (PRKG2 (human)) is reported as 91.4% and the residual activity (MARK4 (human)) is reported as 77.6%. For the same molecule, the residual activity (PRKG1 (human)) was 82.7% and 86.1%, the residual activity (MAP2K1 (human)) was 84.9% and the residual activity (ACVR1B (human)) was 98.2%. For the same molecule, the residual activity (CSK (human)) was 75.5%, the residual activity (MAPK12 (human)) was 85.2% and the residual activity (MAP3K9 (human)) was 51.5%. For the same molecule, the residual activity (CDK6 CCND3 (human)) was 40.9%, the residual activity (TGFBR1 (human)) was 101% and the residual activity (SRC (human)) was 26.2%. The residual activity (RPS6KA3 KD1 KD2 (human)) was 91.9%, the residual activity (LIMK1 (human)) was 69.7% and the residual activity (ERBB4 (human)) was 101%. It also gave a residual activity (STK3 (human)) of 39.5%, a residual activity (TAOK3 (human)) of 72.4% and a residual activity (AKT3 (human)) of 95.1%. For the same molecule, the residual activity (MATK (human)) was 93%, the residual activity (PIM1 (human)) was 79.8% and the residual activity (CSNK1A1 (human)) was 68.5%. It also gave a residual activity (CDK1 CCNA2 (human)) of 77.5%, a residual activity (MYLK (human)) of 74.2% and a residual activity (RPS6KA5 KD2 (human)) of 83.9%. For the same molecule, the residual activity (CAMKK2 (human)) was 102%, the residual activity (MAPK11 (human)) was 83.4% and the residual activity (TNK2 (human)) was 74.7%. The residual activity (PLK3 (human)) was 96.2%, the residual activity (ERBB2 (human)) was 114% and the residual activity (PTK2B (human)) was 85.9%. It also gave a residual activity (MAPK8 (human)) of 88.9%, a residual activity (FGFR4 (human)) of 82.6% and a residual activity [1] of 104%. It also gave a residual activity (SRPK1 (human)) of 96.7%, a residual activity (PRKD2 (human)) of 87.8% and a residual activity (FGFR3 (human)) of 46.5%. It also gave a residual activity (SRMS (human)) of 98%, a residual activity (BMX (human)) of 67.2% and a residual activity (RIPK2 (human)) of 108%. The residual activity (FGFR2 (human)) was 85.8%, the residual activity (PAK2 (human)) was 103% and the residual activity (CSNK1G1 (human)) was 93.9%.
In the case of COc1cc2ncnc(N3CCN(C(=O)Nc4ccc(Oc5ccccc5)cc4)CC3)c2cc1OC, the residual activity (SGK3 (human)) is reported as 97.6%, the residual activity (PRKG2 (human)) is reported as 97.5% and the residual activity (MARK4 (human)) is reported as 76.5%. The residual activity (PRKG1 (human)) was 85.6% and 98.7%, the residual activity (MAP2K1 (human)) was 91.2% and the residual activity (ACVR1B (human)) was 94.7%. For the same molecule, the residual activity (CSK (human)) was 81.3%, the residual activity (MAPK12 (human)) was 94.7% and the residual activity (MAP3K9 (human)) was 100%. The residual activity (CDK6 CCND3 (human)) was 100%, the residual activity (TGFBR1 (human)) was 99.5% and the residual activity (SRC (human)) was 102%. It also gave a residual activity (RPS6KA3 KD1 KD2 (human)) of 115%, a residual activity (LIMK1 (human)) of 69.8% and a residual activity (ERBB4 (human)) of 101%. For the same molecule, the residual activity (STK3 (human)) was 93.3%, the residual activity (TAOK3 (human)) was 95.3% and the residual activity (AKT3 (human)) was 97.5%. For the same molecule, the residual activity (MATK (human)) was 96.8%, the residual activity (PIM1 (human)) was 102% and the residual activity (CSNK1A1 (human)) was 108%. It also gave a residual activity (CDK1 CCNA2 (human)) of 92.3%, a residual activity (MYLK (human)) of 101% and a residual activity (RPS6KA5 KD2 (human)) of 96.4%. The residual activity (CAMKK2 (human)) was 81.6%, the residual activity (MAPK11 (human)) was 99.6% and the residual activity (TNK2 (human)) was 77.1%. For the same molecule, the residual activity (PLK3 (human)) was 91.8%, the residual activity (ERBB2 (human)) was 100% and the residual activity (PTK2B (human)) was 91.2%. The residual activity (MAPK8 (human)) was 90.5%, the residual activity (FGFR4 (human)) was 99.7% and the residual activity [1] was 96.5%. The residual activity (SRPK1 (human)) was 97.5%, the residual activity (PRKD2 (human)) was 91.9% and the residual activity (FGFR3 (human)) was 99.9%. It also gave a residual activity (SRMS (human)) of 93.6%, a residual activity (BMX (human)) of 90.9% and a residual activity (RIPK2 (human)) of 93.7%. The residual activity (FGFR2 (human)) was 92.4%, the residual activity (PAK2 (human)) was 104% and the residual activity (CSNK1G1 (human)) was 81.6%.
